Records with an inconclusive call do not appear. Active and inactive are the calls of the source.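 How the source made its calls: active means fitted curve reaches -35% activity change at up to twice the top valid dose, with every replicate test run active; inconclusive means replicate test runs disagree on the call; inactive means all runs inactive, no -35% crossing or signal rises.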

The first test deals with HEK293 LMP1-TES2 NF-kB luciferase reporter, 16 h. Nature of the test: LMP1 TES2 NF-kB reporter inhibitors, dose response, cell-based, HEK293, luciferase, dry powder (AID 624373).
Details: not given
For `C/C(=N\NC(=S)N1CCCCC1)c1ccccn1`, the AC35 is 0.212 µM.

On to `CC(C)=CCN(C(=O)C#Cc1ccccc1)[C@H](CO)c1ccccc1`, for which the AC35 was 1.88 µM.

Take `CC1CN(C(=O)CSc2nnc3c4ccccc4n(Cc4cccc(Cl)c4)c3n2)CCN1C(=O)c1ccccc1F` (centres undefined): the AC35 was 4.36 µM.

On to `CC12CCC3C(CC=C4CC(O)CCC43CO)C1CCC2OC(=O)c1ccccc1` (centres undefined), for which the AC35 is 3.06 µM.

For the molecule `C/C(=N\NC(=S)Nc1ccc(C)cc1)c1ccccn1`, the AC35 was 0.142 µM.

For `C[C@H](CO)N1C[C@H](C)[C@@H](CN(C)CC2CC2)OCCCC[C@H](C)Oc2ccc(NC(=O)Nc3cccc4ccccc34)cc2C1=O`, the AC35 was 0.351 µM.

Consider `C[C@@H]1CCCCO[C@H](CN(C)C(=O)NC2CCCCC2)[C@H](C)CN([C@@H](C)CO)C(=O)c2cc(NC(=O)C3CCCCC3)ccc2O1`, for which the AC35 was 6.42 µM.

For `c1ccc(Cn2c3ccccc3c3nnc(SCCN4CCCCC4)nc32)cc1`, the AC35 was 18.7 µM.

`C[C@H](CO)N1C[C@H](C)[C@@H](CN(C)Cc2ccc(-c3ccccc3)cc2)Oc2ccc(NC(=O)Nc3cccc4ccccc34)cc2CC1=O`: the AC35 was 2.36 µM.

As for `Cc1ccc(S(=O)(=O)Nc2ccc3c(c2)C(=O)N([C@@H](C)CO)C[C@H](C)[C@@H](CN(C)C(=O)CCC(F)(F)F)OCCCC[C@H](C)O3)cc1`, the AC35 is 0.288 µM.

With `COc1ccccc1[C@]1(C)ON(c2ccccc2C(F)(F)F)C1=O`, the AC35 is 8.16 µM.

For the molecule `O=C(CSc1nnc2c3ccccc3n(Cc3ccccc3)c2n1)NCc1ccco1`, the AC35 was 2.1 µM.

Take `C[C@@H]1CN([C@@H](C)CO)C(=O)c2cc(NC(=O)Nc3ccc4c(c3)OCO4)ccc2O[C@H]1CN(C)CC1CCCCC1`: the AC35 was 0.895 µM.

As to `C[C@H](CO)N1C[C@H](C)[C@H](CN(C)C(=O)Nc2ccc(C(F)(F)F)cc2)OCCCC[C@H](C)Oc2ccc(NC(=O)Nc3ccc(F)cc3)cc2C1=O`, the AC35 was 5.4 µM.

Take `C/C=C/C/C=C/CCC(=O)[C@H]1O[C@H]1C(N)=O`: the AC35 was 12 µM.

As to `C[C@@H]1CN([C@@H](C)CO)C(=O)c2cc(NC(=O)Nc3ccc(C(F)(F)F)cc3)ccc2O[C@@H](C)CCCCO[C@@H]1CN(C)CC1CCCCC1`, the AC35 is 1.86 µM.

With `C/C(=N\NC(=S)N1CCCC1)c1ccccn1`, the AC35 was 0.262 µM.

As for `C[C@H]1CCCCO[C@@H](CN(C)CC2CCCCC2)[C@@H](C)CN([C@@H](C)CO)C(=O)c2cc(NC(=O)C3CCCCC3)ccc2O1`, the AC35 was 9.98 µM.

For `Nc1ccn([C@@H]2O[C@H](CO)[C@@H](O)C2O)c(=O)n1` (some centres undefined), the AC35 was 8.54 µM.

Turning to `O=C1/C(=C/c2ccncc2)SC(=S)N1Cc1ccccc1`, the AC35 was 18.2 µM.

In the case of `C/C(=N\NC(=S)N1CC2CCC(CC2)C1)c1ccccn1`, the AC35 is 1.18 µM.

As to `C/C(=N\NC(=S)N1CC2CCC(CC2)C1)c1ccncn1`, the AC35 is 2.5 µM.

In the case of `S=C(NCc1ccccn1)N/N=C/c1ccccn1`, the AC35 is 1.01 µM.

Regarding `O=c1[nH]c(=O)n([C@H]2C[C@H](O)[C@@H](CO)O2)cc1C(F)(F)F`, the AC35 was 3.09 µM.

Consider `COc1ccc(NC(=O)c2ccc(OC(C)C(=O)O)cc2)cc1Cl` (centres undefined), for which the AC35 is 11.8 µM.

As for `C/C(=N\NC(=S)N1CCC1)c1ccccn1`, the AC35 was 0.679 µM.

With `CCCSc1nnc2c3ccccc3n(Cc3ccccc3)c2n1`, the AC35 was 3.4 µM.

Take `Cc1ccc(NC(=O)C2CCN(S(=O)(=O)c3ccc4c(c3)NC(=O)C(C)S4)CC2)cc1Cl` (centres undefined): the AC35 was 1.65 µM.

For `C/C(=N\NC(=S)Nc1cccc(Cl)c1)c1ccccn1`, the AC35 is 0.314 µM.

Take `COc1ccc2[nH]c(C(=O)N/N=C/c3ccc(O)cc3O)cc2c1`: the AC35 is 3.63 µM.

Regarding `CSC(=S)N/N=C(\C)c1cccc(C)n1`, the AC35 is 3.01 µM.

On to `C/C(=N\NC(=S)N1CCCCC1)c1cccc(C)n1`, for which the AC35 is 0.259 µM.

In the case of `C=C1C[C@]23C[C@@]1(O)CC[C@@H]2c1cccc(C)c1[C@@H]3C(=O)O`, the AC35 is 4.34 µM.

On to `C/C(=N\NC(=S)Nc1ccccc1Cl)c1ccccn1`, for which the AC35 is 0.457 µM.

Consider `C/C(=N\NC(=S)Nc1ccccc1)c1ccccn1`, for which the AC35 is 0.313 µM.

On to `CCC(Sc1nnc2c3ccccc3n(Cc3ccc(Br)cc3)c2n1)C(=O)NCCCN1CCOCC1` (centres undefined), for which the AC35 was 3.2 µM.

Regarding `C/C(=N\NC(=S)N1CC2CCC(CC2)C1)c1cccc(C)n1`, the AC35 is 0.637 µM.

`C/C(=N\NC(=S)N1CCCCCC1)c1ccccn1`: the AC35 was 0.216 µM.

On to `CCN1CCN(C(c2cccnc2)c2cc(Cl)c3cccnc3c2O)CC1` (centres undefined), for which the AC35 was 3.32 µM.

As to `Cc1ccnc(NC(=O)c2ccc(C(=O)c3ccccc3)cc2)c1`, the AC35 was 11 µM.

On to `Fc1ccc2c(c1)c1nnc(SCCN3CCOCC3)nc1n2Cc1ccccc1`, for which the AC35 was 3.94 µM.

For the molecule `COCCCNC(=O)C(C)Sc1nnc2c3cc(C)ccc3n(Cc3ccccc3F)c2n1` (centres undefined), the AC35 was 5.01 µM.

System in another test: not listed separately
Described as above. To be noted: HEK293 LMP1-TES2 NF-kB luciferase reporter, 16 h; at 15 µM (top of the series). (In general: Reporter assays use an easily measured gene product as a stand-in for the process of interest.)
With `C=C1C[C@]23C[C@@]1(O)CC[C@H]2[C@@]12C=C[C@H](O)[C@@](C)(C(=O)O1)[C@H]2[C@@H]3C(=O)O`, the activity change, negative = inhibition was 2.14% (inactive).

Still in this test, the particulars now being: HEK293 LMP1-TES2 NF-kB luciferase reporter, 16 h; at 26 µM (top of the series).
Turning to `C[C@@H]1CN([C@@H](C)CO)C(=O)c2cc(NC(=O)Nc3ccc(C(F)(F)F)cc3)ccc2O[C@@H](C)CCCCO[C@H]1CN(C)Cc1ccc(C(F)(F)F)cc1`, the activity change, negative = inhibition is 52.3% (inactive).

Regarding `C[C@@H]1CCCCO[C@H](CN(C)C(=O)c2ccccc2)[C@H](C)CN([C@@H](C)CO)C(=O)c2cc(NC(=O)Nc3ccc(F)cc3)ccc2O1`, the activity change, negative = inhibition was 4.26% (inactive).

Regarding `Cc1ccc(S(=O)(=O)NC(CC(C)C)C(=O)NCC(c2ccco2)N2CCCCC2)cc1` (centres undefined), the activity change, negative = inhibition was -8.46% (inactive).

As to `C[C@@H]1CCCCO[C@@H](CN(C)Cc2ccccc2)[C@H](C)CN([C@H](C)CO)C(=O)c2cc(NC(=O)Nc3ccc4c(c3)OCO4)ccc2O1`, the activity change, negative = inhibition was 10.6% (inactive).

`CNC[C@@H]1Oc2ccc(NS(=O)(=O)c3cn(C)cn3)cc2CC(=O)N([C@H](C)CO)C[C@@H]1C`: the activity change, negative = inhibition was 37.6% (inactive).

As to `CCc1ccc(/C=C2\SC(=S)N(CCCC(=O)Nc3ccccn3)C2=O)cc1`, the activity change, negative = inhibition is 12.1% (inactive).

Consider `O=C(Nc1cc(C(F)(F)F)cc(C(F)(F)F)c1)Nc1cnn(-c2ccc([N+](=O)[O-])cc2)c1C(F)(F)F`, for which the activity change, negative = inhibition was 10.5% (inactive).

Take `Cc1c(NC(=O)c2cccc(NC(=O)COc3ccccc3C#N)c2)c(=O)n(-c2ccccc2)n1C`: the activity change, negative = inhibition is 23.3% (inactive).

As for `COc1ccc(-c2csc3ncnc(NCCN4CCOCC4)c23)cc1`, the activity change, negative = inhibition was 30.3% (inactive).

As for `C[C@@H]1CCCCO[C@H](CN(C)CC2CCCCC2)[C@H](C)CN([C@@H](C)CO)C(=O)c2cc(NC(=O)NC3CCCCC3)ccc2O1`, the activity change, negative = inhibition was 56.5% (inactive).

As to `COc1ccc(-c2cc3nc4n(c(=O)c3s2)CCC4)cc1`, the activity change, negative = inhibition is 23.4% (inactive).

Consider `Cc1cc(NC(=O)c2ccc3c(c2)OCCO3)no1`, for which the activity change, negative = inhibition was 1.38% (inactive).

Consider `C[C@H](CO)N1C[C@H](C)[C@@H](CN(C)CC2CCCCC2)OCCCC[C@H](C)Oc2ccc(NC(=O)Nc3cccc4ccccc34)cc2C1=O`, for which the activity change, negative = inhibition was 27.7% (inactive).

As for `c1ccc(-c2cn3c4c(sc3n2)CCCC4)cc1`, the activity change, negative = inhibition was 7.22% (inactive).

With `Oc1cccc(C(Nc2nccs2)c2ccc3cccnc3c2O)c1` (centres undefined), the activity change, negative = inhibition is 33.9% (inactive).

Regarding `CCc1sc(C(=O)Nc2ncccc2O)cc1C`, the activity change, negative = inhibition is -12.6% (inactive).

(Values after PubChem BioAssay AID624373 (Broad Institute, 2012).)
